Experimental data taken from PubChem BioAssay AID1963423 (Molecular Pharmacology Branch, DTP, NCI, 2024).

Tested on: 439559-082-T-J2-PDC complex spheroid growth
Assay: Anticancer human tumor 439559-082-T-J2-PDC patient-derived colon adenocarcinoma cell line growth inhibition [Asc]
Details: for IC50: curve of first compound; for viability, T/C: stronger effect = lower value
Summary of the method: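 Tumor cells were grown as multicellular spheroids with stromal HUVEC and mesenchymal stem cells and treated singly or in combination. Concentrations fell in half-log steps from the clinical Cmax, or from 10 microM where none was known.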

[1] = second compound 0.1 µM, first compound 0.00316 µM
[2] = second compound 0.1 µM, first compound 0.01 µM
[3] = second compound 0.1 µM, first compound 0.0316 µM
[4] = second compound 0.1 µM, first compound 0.1 µM
[5] = second compound 0.1 µM, first compound 0.316 µM
[6] = second compound 0.1 µM, first compound 1 µM
[7] = second compound 0.316 µM, first compound 0.00316 µM
[8] = second compound 0.316 µM, first compound 0.01 µM
[9] = second compound 0.316 µM, first compound 0.0316 µM
[10] = second compound 0.316 µM, first compound 0.1 µM
[11] = second compound 0.316 µM, first compound 0.316 µM
[12] = second compound 0.316 µM, first compound 1 µM
[13] = second compound 1 µM, first compound 0.00316 µM
[14] = second compound 1 µM, first compound 0.01 µM
[15] = second compound 1 µM, first compound 0.0316 µM
[16] = second compound 1 µM, first compound 0.1 µM
[17] = second compound 1 µM, first compound 0.316 µM
[18] = second compound 1 µM, first compound 1 µM
[19] = second compound 3.16 µM, first compound 0.00316 µM
[20] = second compound 3.16 µM, first compound 0.01 µM
[21] = second compound 3.16 µM, first compound 0.0316 µM
[22] = second compound 3.16 µM, first compound 0.1 µM
[23] = second compound 3.16 µM, first compound 0.316 µM
[24] = second compound 3.16 µM, first compound 1 µM
[25] = second compound 10 µM, first compound 0.00316 µM
[26] = second compound 10 µM, first compound 0.01 µM
[27] = second compound 10 µM, first compound 0.0316 µM
[28] = second compound 10 µM, first compound 0.1 µM
[29] = second compound 10 µM, first compound 0.316 µM
[30] = second compound 10 µM, first compound 1 µM
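Also: spheroids exposed to agents for 7 days starting day 3 after seeding.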
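For viability, T/C in this document: percent of DMSO vehicle control viability with 100% = vehicle.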

Row | Structure (SMILES) | IC50 (second compound 0.1 µM) [nM] | IC50 (second compound 0.316 µM) [nM] | IC50 (second compound 1 µM) [nM] | IC50 (second compound 3.16 µM) [nM] | IC50 (second compound 10 µM) [nM] | viability, T/C [1] [%] | viability, T/C [2] [%] | viability, T/C [3] [%] | viability, T/C [4] [%] | viability, T/C [5] [%] | viability, T/C [6] [%] | viability, T/C [7] [%] | viability, T/C [8] [%] | viability, T/C [9] [%] | viability, T/C [10] [%] | viability, T/C [11] [%] | viability, T/C [12] [%] | viability, T/C [13] [%] | viability, T/C [14] [%] | viability, T/C [15] [%] | also measured
1 | CCN1CCN(Cc2ccc(Nc3ncc(F)c(-c4cc(F)c5nc(C)n(C(C)C)c5c4)n3)nc2)CC1 + Cc1c(S(C)(=O)=O)c(-c2cc(F)cc(N3CCN(c4ccc(NS(=O)(=O)c5ccc(NC(CCN6CCC(C(=O)OCCCP(=O)(O)O)CC6)CSc6ccccc6)c(S(=O)(=O)C(F)(F)F)c5)cc4)CC3)c2)c(-c2ccc(Cl)cc2)n1C(C)C | > 1000 | > 1000 | > 1000 | > 1000 | > 1000 | 93.5 | 107 | 94.2 | 85.3 | 92.8 | 80.5 | 101 | 102 | 103 | 78.5 | 84.2 | 73.4 | 96.5 | 93.5 | 94.3 | viability, T/C [16]: 80.5%; viability, T/C [17]: 80%; viability, T/C [18]: 70%; viability, T/C [19]: 85.1%; viability, T/C [20]: 92.5%; viability, T/C [21]: 98.9%; viability, T/C [22]: 72.4%; viability, T/C [23]: 69.4%; viability, T/C [24]: 68.6%; viability, T/C [25]: 82.4%; viability, T/C [26]: 81.7%; viability, T/C [27]: 83.2%; viability, T/C [28]: 63.5%; viability, T/C [29]: 61.2%; viability, T/C [30]: 50.1%
2 | O=C(c1ccc(F)c(F)c1Nc1ccc(I)cc1F)N1CC(O)([C@@H]2CCCCN2)C1 + Cc1c(S(C)(=O)=O)c(-c2cc(F)cc(N3CCN(c4ccc(NS(=O)(=O)c5ccc(NC(CCN6CCC(C(=O)OCCCP(=O)(O)O)CC6)CSc6ccccc6)c(S(=O)(=O)C(F)(F)F)c5)cc4)CC3)c2)c(-c2ccc(Cl)cc2)n1C(C)C | 201 | 188 | 141 | 104 | 56.6 | 96.7 | 105 | 76 | 57.5 | 47.7 | 16.9 | 96 | 103 | 79.8 | 59.5 | 42.6 | 11.5 | 88.8 | 96.1 | 84.6 | viability, T/C [16]: 48.5%; viability, T/C [17]: 38.2%; viability, T/C [18]: 7.87%; viability, T/C [19]: 91.6%; viability, T/C [20]: 90.9%; viability, T/C [21]: 76.3%; viability, T/C [22]: 45.4%; viability, T/C [23]: 29.9%; viability, T/C [24]: 4.98%; viability, T/C [25]: 76.5%; viability, T/C [26]: 68.7%; viability, T/C [27]: 68.3%; viability, T/C [28]: 32.6%; viability, T/C [29]: 19.1%; viability, T/C [30]: 2.9%
